Drawing on ChEMBL document CHEMBL5725581, “Compounds and compositions for treating HIV with derivatives of Betulin” (2018), this text covers EC50 for two compounds.

In general, pEC50 refers to the EC50 on a negative log10 scale, so that one unit is a factor of ten. A higher pEC50 goes with a small EC50.

pEC50: −log10 of the molar value.

A short description of the assay: MT4 Cell Antiviral Assay: Antiviral HIV activity and compound-induced cytotoxicity were measured in parallel by means of a propidium iodide based procedure in the human T-cell lymphotropic virus transformed cell line MT4. Aliquots of the test compounds were serially diluted in medium (RPMI 1640, 10% fetal calf serum (FCS), and gentamycin) in 96-well plates (Costar 3598) using a Cetus Pro/Pette. ….

Description: MT4 Cell Antiviral Assay: Antiviral HIV activity and compound-induced cytotoxicity were measured in parallel by means of a propidium iodide based procedure in the human T-cell lymphotropic virus transformed cell line MT4. […] Exponentially growing MT4 cells were harvested and centrifuged at 1000 rpm for 10 min in a Jouan centrifuge (model CR 4 12). […] Cell infection was allowed to proceed for 1 hr at 37° C. in a tissue culture incubator with humidified 5% CO2 atmosphere. After the 1 hr incubation the virus/cell suspensions were diluted 6-fold with fresh medium, and 125 μl of the cell suspension was added to each well of the plate containing pre-diluted compound. Plates were then placed in a tissue culture incubator with humidified 5% CO2 for 5 days. […] After thorough mixing with a Costar multitip pipetter, 60 μl of the mixture was transferred to filter-bottomed 96-well plates. The plates were analyzed in an automated assay instrument (Screen Machine, Idexx Laboratories). The control and standard used was 3′-azido-3′-deoxythymidine tested over a concentration range of 0.01 to 1 μM in every assay. […] The assay makes use of a propidium iodide dye to estimate the DNA content of each well.For MTS readout, 20 μl CellTiter 96 AQ One Solution reagent (Promega #G3582) was added to each well.

Take `CC(C)C1=C2[C@H]3CC[C@@H]4[C@@]5(C)CC[C@H](OC(=O)CC(C)(C)CC(=O)O)C(C)(C)[C@@H]5CC[C@@]4(C)[C@]3(C)CC[C@@]2([C@H](O)CNCc2ccc(Cl)cc2)CC1=O`: the negative-log EC50 (pEC50) was 6.98.
On to `CC(C)NC[C@H](O)[C@@]12CC[C@]3(C)[C@H](CC[C@@H]4[C@@]5(C)CC[C@H](OC(=O)CC(C)(C)C(=O)O)C(C)(C)[C@@H]5CC[C@]43C)C1=C(C(C)C)C(=O)C2`, for which the negative-log EC50 (pEC50) (MT4, 10 min) is 7.50.
